Test results: PubChem BioAssay AID1918941 (Molecular Pharmacology Branch, DTP, NCI, 2023)

System: SW 1271 complex spheroids, viability
Test: Anticancer human tumor SW 1271 cell line growth inhibition [LSD1];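 note: spheroids exposed to agents for 7 days before luminescence read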
Conditions: for IC50: curve of first compound; for viability, T/C: stronger effect = lower value; active = viability on the fitted dose curve at most 10% of control; inactive = the rest
In short: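 Complex spheroids of tumor cells with HUVEC and human MSCs, exposed to iadademstat combined with other agents. Each agent tested in half-log steps from near clinical Cmax (else 10 microM top), DMSO ≤0.25%.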

CC[C@@]1(O)C(=O)OCc2c1cc1n(c2=O)Cc2cc3c(CN(C)C)c(O)ccc3nc2-1 + NC1CCC(NC2CC2c2ccccc2)CC1
> 100 nM: IC50 (second compound 0.1 µM) | IC50 (second compound 0.316 µM) | IC50 (second compound 10 µM)
inactive: viability, T/C (second compound 0.1 µM, first compound 0.000316 µM) 89.2% | viability, T/C (second compound 0.1 µM, first compound 0.001 µM) 93.8% | viability, T/C (second compound 0.1 µM, first compound 0.00316 µM) 78.8% | viability, T/C (second compound 0.1 µM, first compound 0.01 µM) 63% | viability, T/C (second compound 0.1 µM, first compound 0.0316 µM) 58% | viability, T/C (second compound 0.1 µM, first compound 0.1 µM) 56.4% | viability, T/C (second compound 0.316 µM, first compound 0.000316 µM) 90% | viability, T/C (second compound 0.316 µM, first compound 0.001 µM) 74.2% | viability, T/C (second compound 0.316 µM, first compound 0.00316 µM) 71.6% | viability, T/C (second compound 0.316 µM, first compound 0.01 µM) 72.5% | viability, T/C (second compound 0.316 µM, first compound 0.0316 µM) 62% | viability, T/C (second compound 0.316 µM, first compound 0.1 µM) 58.9% | viability, T/C (second compound 1 µM, first compound 0.000316 µM) 73.4% | viability, T/C (second compound 1 µM, first compound 0.001 µM) 94.5% | viability, T/C (second compound 1 µM, first compound 0.00316 µM) 80.1% | viability, T/C (second compound 1 µM, first compound 0.01 µM) 66.7% | viability, T/C (second compound 1 µM, first compound 0.0316 µM) 59% | viability, T/C (second compound 1 µM, first compound 0.1 µM) 45.4% | viability, T/C (second compound 3.16 µM, first compound 0.000316 µM) 95.9% | viability, T/C (second compound 3.16 µM, first compound 0.001 µM) 78.2% | viability, T/C (second compound 3.16 µM, first compound 0.00316 µM) 72.9% | viability, T/C (second compound 3.16 µM, first compound 0.01 µM) 68.3% | viability, T/C (second compound 3.16 µM, first compound 0.0316 µM) 49.7% | viability, T/C (second compound 3.16 µM, first compound 0.1 µM) 49.6% | viability, T/C (second compound 10 µM, first compound 0.000316 µM) 88.3% | viability, T/C (second compound 10 µM, first compound 0.001 µM) 84.2% | viability, T/C (second compound 10 µM, first compound 0.00316 µM) 78.2% | viability, T/C (second compound 10 µM, first compound 0.01 µM) 60.3% | viability, T/C (second compound 10 µM, first compound 0.0316 µM) 57.5% | viability, T/C (second compound 10 µM, first compound 0.1 µM) 52.2%
66.1 nM: IC50 (second compound 1 µM)
71.6 nM: IC50 (second compound 3.16 µM)

CCc1c2c(nc3ccc(O)cc13)-c1cc3c(c(=O)n1C2)COC(=O)[C@]3(O)CC + NC1CCC(NC2CC2c2ccccc2)CC1
3.54 nM: IC50 (second compound 0.1 µM) | IC50 (second compound 1 µM)
active: viability, T/C (second compound 0.1 µM, first compound 0.03 µM) 8.08% | viability, T/C (second compound 0.1 µM, first compound 0.0949 µM) 5.77% | viability, T/C (second compound 0.1 µM, first compound 0.3 µM) 5.6% | viability, T/C (second compound 0.316 µM, first compound 0.0949 µM) 8.55% | viability, T/C (second compound 0.316 µM, first compound 0.3 µM) 3.31% | viability, T/C (second compound 1 µM, first compound 0.03 µM) 8.11% | viability, T/C (second compound 1 µM, first compound 0.0949 µM) 5.83% | viability, T/C (second compound 1 µM, first compound 0.3 µM) 3.46% | viability, T/C (second compound 10 µM, first compound 0.03 µM) 7.16% | viability, T/C (second compound 10 µM, first compound 0.0949 µM) 5.27% | viability, T/C (second compound 10 µM, first compound 0.3 µM) 3.36%
inactive: viability, T/C (second compound 0.1 µM, first compound 0.000949 µM) 59.3% | viability, T/C (second compound 0.1 µM, first compound 0.003 µM) 53.9% | viability, T/C (second compound 0.1 µM, first compound 0.00949 µM) 26.8% | viability, T/C (second compound 0.316 µM, first compound 0.000949 µM) 57.5% | viability, T/C (second compound 0.316 µM, first compound 0.003 µM) 42.2% | viability, T/C (second compound 0.316 µM, first compound 0.00949 µM) 26% | viability, T/C (second compound 0.316 µM, first compound 0.03 µM) 9.7% | viability, T/C (second compound 1 µM, first compound 0.000949 µM) 56.9% | viability, T/C (second compound 1 µM, first compound 0.003 µM) 52.8% | viability, T/C (second compound 1 µM, first compound 0.00949 µM) 31.5% | viability, T/C (second compound 3.16 µM, first compound 0.000949 µM) 57.8% | viability, T/C (second compound 3.16 µM, first compound 0.003 µM) 46.5% | viability, T/C (second compound 3.16 µM, first compound 0.00949 µM) 26.4% | viability, T/C (second compound 3.16 µM, first compound 0.03 µM) 7.18% | viability, T/C (second compound 3.16 µM, first compound 0.0949 µM) 5.59% | viability, T/C (second compound 3.16 µM, first compound 0.3 µM) 19.2% | viability, T/C (second compound 10 µM, first compound 0.000949 µM) 52.4% | viability, T/C (second compound 10 µM, first compound 0.003 µM) 48% | viability, T/C (second compound 10 µM, first compound 0.00949 µM) 27.9%
1.83 nM: IC50 (second compound 10 µM)
1.7 nM: IC50 (second compound 0.316 µM)
2.36 nM: IC50 (second compound 3.16 µM)
